One experiment deals with HepG2. The experiment is described as follows: Cytotoxicity against human HepG2 cells after 48 hrs by MTT assay. It counts as functional, cell-based. On the technique in general: Tetrazolium assays rely on reduction of a dye to a coloured formazan, in cell work by metabolically active cells.
For another experiment, the system named is MCF7. Briefly: Cytotoxicity against human MCF7 cells after 48 hrs by MTT assay. It counts as functional, cell-based.

SMILES strings stand for the structures.

Regarding `CCC(C(C)C)[C@H]1O[C@@H]1[C@@H](C)[C@H]1CC[C@H]2[C@@H]3[C@H](O)C=C4C[C@@H](O)CC[C@]4(C)[C@H]3CC[C@]12C` (stereo partly specified), the Activity result in the experiment on HepG2 and in the experiment with MCF7 was “Toxic” in each case.

Take `CC[C@@H](C(C)C)[C@@H](O)[C@H](O)[C@@H](C)[C@H]1CC[C@H]2[C@@H]3CC(=O)C4=CC(=O)CC[C@]4(C)[C@H]3CC[C@]12C`: the Activity entry with MCF7 is “Toxic”.

As to `CCC(C(C)C)[C@@H](O)[C@H](O)[C@@H](C)[C@H]1CC[C@H]2[C@@H]3C(=O)C=C4C[C@@H](O)CC[C@]4(C)[C@H]3CC[C@]12C` (stereo partly specified), the Activity entry in the experiment with HepG2 and in the experiment on MCF7 was “Toxic” each time.

In the case of `CCC(C(C)C)[C@@H](O)[C@H](O)[C@@H](C)[C@H]1CC[C@H]2[C@@H]3C[C@@H]4O[C@@]45C[C@@H](O)CC[C@]5(C)[C@H]3CC[C@]12C` (stereo partly specified), the Activity result in the experiment on MCF7 was “Toxic”.

On to `CCC(C(C)C)[C@@H](O)[C@H](O)[C@@H](C)[C@H]1CC[C@H]2[C@@H]3CC=C4C[C@@H](O)CC[C@]4(C)[C@H]3CC[C@]12C` (stereo partly specified), for which the Activity result with HepG2 and in the experiment on MCF7 was “Toxic” in each case.

On to `CC[C@@H](C(C)C)[C@@H](O)[C@H](O)[C@@H](C)[C@H]1CC[C@H]2[C@@H]3CCC4=CC(=O)CC[C@]4(C)[C@H]3CC[C@]12C`, for which, in the experiment with MCF7, the Activity entry is “Toxic”.

For the molecule `CCC(C(C)C)[C@@H](O)[C@H](O)[C@@H](C)[C@H]1CC[C@H]2[C@@H]3C[C@@H](O)[C@@]4(O)C[C@@H](O)CC[C@]4(C)[C@H]3CC[C@]12C` (stereo partly specified), the Activity result in the experiment with HepG2 and in the experiment with MCF7 was “Toxic” each time.
